For one data set, the system named is SW707. Kind of data set: Cytotoxicity against human SW707 cells at 1.6 to 100 ug/ml after 72 hrs by crystal violet assay. Format: functional, cell-based.
Another data set concerns MeWo. Kind of data set: Cytotoxicity against human MeWo cells at 1.6 to 100 ug/ml after 72 hrs by crystal violet assay. Type of data set: functional, cell-based.
The test system of another data set is Escherichia coli. Nature of the data set: Antimicrobial activity against Escherichia coli BL21(DE3) assessed as inhibition of bacterial growth at 200 uM incubated at 37 degC for 7 hrs. As to conditions: for inhibition at 200 µM: BL21-DE3, 7 h. Format: functional.
The next data set deals with Calu-6. Nature of the data set: Cytotoxicity against human Calu6 cells at 1.6 to 100 ug/ml after 72 hrs by crystal violet assay. Format: functional, cell-based.
A further data set deals with BT-474. Kind of data set: Cytotoxicity against human BT474 cells at 1.6 to 100 ug/ml after 72 hrs by crystal violet assay. Type of data set: functional, cell-based.
In data set [1] the target is T1, Methionine aminopeptidase (Escherichia coli K-12, UniProt P0AE18).
T1 sequence (P0AE18 whole entry): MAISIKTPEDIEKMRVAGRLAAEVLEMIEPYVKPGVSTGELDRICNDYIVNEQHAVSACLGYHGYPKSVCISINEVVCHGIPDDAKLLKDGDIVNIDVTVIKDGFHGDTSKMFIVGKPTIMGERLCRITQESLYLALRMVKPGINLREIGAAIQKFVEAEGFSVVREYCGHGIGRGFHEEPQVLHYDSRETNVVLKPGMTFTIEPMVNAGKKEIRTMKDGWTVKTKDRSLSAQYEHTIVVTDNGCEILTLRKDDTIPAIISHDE
Kind of data set: Inhibition of C-terminal poly-His-tagged Escherichia coli MetAP expressed in Escherichia coli BL21(DE3) incubated for 30 mins before MGMM substrate addition by fluorescence assay.

The nature of data set [2]: Cytotoxicity against human Flow 2002 cells at 1.6 to 100 ug/ml after 72 hrs by crystal violet assay. The settings on record: flow 2002, 72 h. Format: cell-based.
Another data set relates to HaCaT. Nature of the data set: Cytotoxicity against human HaCaT cells at 1.6 to 100 ug/ml after 72 hrs by crystal violet assay. Format: cell-based.
Data set [3] addresses Methionine aminopeptidase (Staphylococcus aureus (strain COL), UniProt Q5HEN6). Nature of the data set: Inhibition of N-terminal poly-His-tagged Staphylococcus aureus COL MetAP expressed in Escherichia coli BL21(DE3) incubated for 30 mins before MGMM substrate addition by fluorescence assay. Set-up: species or system Staphylococcus aureus subsp. aureus COL.
Another data set concerns Ca-Ski. Nature of the data set: Cytotoxicity against human CaSki cells at 1.6 to 100 ug/ml after 72 hrs by crystal violet assay. Format: functional, cell-based.
The target in data set [4] is Methionine aminopeptidase 2 (Homo sapiens, UniProt P50579). The settings on record: sf9.
Methionine aminopeptidase 2, sequence (P50579 whole entry): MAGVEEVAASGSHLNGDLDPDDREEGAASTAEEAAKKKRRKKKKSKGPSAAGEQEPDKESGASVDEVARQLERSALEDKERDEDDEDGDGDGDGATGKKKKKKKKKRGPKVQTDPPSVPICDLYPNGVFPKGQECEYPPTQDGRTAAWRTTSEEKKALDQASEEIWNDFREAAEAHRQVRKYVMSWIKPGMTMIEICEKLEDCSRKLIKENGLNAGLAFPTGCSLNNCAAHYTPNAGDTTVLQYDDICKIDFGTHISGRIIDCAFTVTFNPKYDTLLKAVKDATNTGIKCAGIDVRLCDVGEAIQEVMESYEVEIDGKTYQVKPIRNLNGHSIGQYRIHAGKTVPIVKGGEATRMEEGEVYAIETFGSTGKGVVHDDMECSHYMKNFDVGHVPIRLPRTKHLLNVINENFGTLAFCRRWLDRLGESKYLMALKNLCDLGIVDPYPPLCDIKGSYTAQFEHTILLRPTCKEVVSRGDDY
Description: Inhibition of human MetAP-2 expressed in Sf9 cells incubated for 60 mins before MGMM substrate addition by fluorescence assay
In data set [5] the target is Methionine aminopeptidase 1 (Homo sapiens, UniProt P53582). Kind of data set: Inhibition of N-terminal poly-His-tagged human MetAP-1 expressed in Escherichia coli BL21(DE3) incubated for 30 mins before MGMM substrate addition by fluorescence assay.
Data set [6] is described as follows: Half life assessed as decomposition into amines and unsaturated ketones at 250 uM in 50 mM Tris/maleate pH 7.5 buffer by HPLC method. Type of data set: physicochemical. The settings on record: for t1/2: buffer, pH 7.5, 250 µM; for half-life at 250 µM: Tris/maleate buffer, pH 7.5.
For the next data set, the system named is A 172. Nature of the data set: Cytotoxicity against human A172 cells at 1.6 to 100 ug/ml after 72 hrs by crystal violet assay. Type of data set: functional, cell-based.
The next data set has as its system CAPAN-1. Kind of data set: Cytotoxicity against human Capan1 cells at 1.6 to 100 ug/ml after 72 hrs by crystal violet assay. Format: functional, cell-based.
Another data set relates to A-431. Kind of data set: Cytotoxicity against human A431 cells at 1.6 to 100 ug/ml after 72 hrs by crystal violet assay. Format: functional, cell-based.

Calls of active or inactive are those of the source.

Methionine aminopeptidase (Staphylococcus aureus (strain COL), UniProt Q5HEN6), sequence (Q5HEN6 whole entry): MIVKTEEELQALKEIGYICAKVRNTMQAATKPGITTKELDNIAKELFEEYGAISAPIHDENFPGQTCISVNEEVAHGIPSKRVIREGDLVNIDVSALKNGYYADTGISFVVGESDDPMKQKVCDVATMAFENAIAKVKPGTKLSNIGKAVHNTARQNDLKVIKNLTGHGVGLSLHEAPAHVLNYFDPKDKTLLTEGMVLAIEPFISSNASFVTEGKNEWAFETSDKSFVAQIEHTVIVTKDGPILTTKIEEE

Consider `COc1cccc(C(=O)CCN2CCCCC2)c1.Cl`, for which the result in the data set with SW707, in the data set with MeWo, in the data set with Calu-6, in the data set with BT-474, in the data set with Ca-Ski and in the data set with A 172 was Active. For the same compound, the outcome in the data set with CAPAN-1 and in the data set on A-431 was Active. The inhibition (commonly the share of the control response that was lost under treatment) with Escherichia coli is “inactive”. In addition, the IC50 entry in data set [1], in data set [3], in data set [4] and in data set [5] was “Not Active” throughout. For the same compound, the Activity entry (in data set [2]; in the data set with HaCaT) was “Toxic” each time. The t1/2 result in [6] is listed as “Stable”.

On to `CC1CC(CN(C)C)C(=O)c2ccccc21.Cl` (stereo not given), for which the outcome with SW707, in the data set with MeWo, in the data set with Calu-6, in the data set with BT-474, with Ca-Ski and in the data set on A 172 was Active. Besides, the outcome in the data set with CAPAN-1 and in the data set on A-431 was Active. In addition, the inhibition at 200 µM in the data set with Escherichia coli worked out at 75%. Further, the IC50 (commonly the concentration that gives 50% inhibition) was 3.8 µM in data set [1] (read-out: IC50), “Not Active” in [3], “Not Active” in data set [4] and “Not Active” in data set [5]. Besides, the Activity entry (in data set [2]; in the data set with HaCaT) was “Toxic” in each case. Also, in [6], the half-life (commonly the time needed for the level to fall by half in the phase considered) at 250 µM stood at 4.82 h.

For the compound `COc1ccc2c(c1)C(=O)C(CN(C)C)CC2.Cl` (stereo not given), the result in the data set with SW707, with MeWo, in the data set on Calu-6, in the data set on BT-474, with Ca-Ski and in the data set with A 172 was Active. Besides, the outcome in the data set with CAPAN-1 and in the data set with A-431 was Active. Further, in the data set on Escherichia coli, the inhibition at 200 µM came out at 49%. For the same compound, the IC50 in data set [1] (read-out: IC50) is 2.1 µM; in data set [3], “Not Active”; in data set [4], “Not Active”; in data set [5], “Not Active”. Besides, the Activity entry (in data set [2]; in the data set on HaCaT) was “Toxic” throughout. In data set [6], the half-life at 250 µM came to 6.8 h.

For the compound `Cl.O=C(CCN1CCCCC1)c1ccccc1`, the result with SW707, in the data set with MeWo, in the data set with Calu-6, in the data set on BT-474, in the data set on Ca-Ski and in the data set with A 172 was Active. Further, the outcome in the data set with CAPAN-1 and in the data set on A-431 was Active. Moreover, the inhibition entry with Escherichia coli was “inactive”. The IC50 result in data set [1], in data set [3], in [4] and in data set [5] was “Not Active” throughout. The Activity entry (in data set [2]; with HaCaT) was “Toxic” throughout. The t1/2 result in data set [6] is reported as “Stable”.

Take `CN(C)CC1CCc2sccc2C1=O.Cl` (stereo not given): the outcome in the data set with SW707, with MeWo, in the data set with Calu-6, in the data set on BT-474, with Ca-Ski and with A 172 was Active. Moreover, the result in the data set on CAPAN-1 and in the data set on A-431 was Active. Also, the inhibition at 200 µM in the data set with Escherichia coli came to 10%. Besides, the IC50 in [1] (read-out: IC50) is 60.8 µM; in data set [3] it was “Not Active”; in data set [4], “Not Active”; in [5], “Not Active”. Besides, the Activity entry (in data set [2]; in the data set on HaCaT) was “Toxic” in each case. Moreover, the half-life at 250 µM in data set [6] worked out at 116 h.

Consider `C=C1Cc2cc(OC)c(OC)cc2C1=O`, for which the result in the data set on SW707, with MeWo, in the data set on Calu-6, in the data set on BT-474, with Ca-Ski and in the data set on A 172 was Active. The outcome with CAPAN-1 and in the data set with A-431 was Active. For the same compound, the inhibition at 200 µM in the data set on Escherichia coli was determined as 25%. For the same compound, the half-inhibitory concentration (IC50) in data set [1] (read-out: IC50) was 0.7 µM; in [3] (read-out: IC50), 18.9 µM; in data set [4], “Not Active”; in data set [5] it was “Not Active”. In addition, the Activity entry (in data set [2]; in the data set with HaCaT) was “Toxic” throughout.

As for `CN(C)CCC(=O)c1ccccc1.Cl`, the result in the data set with SW707, in the data set with MeWo, in the data set on Calu-6, in the data set on BT-474, with Ca-Ski and with A 172 was Active. In addition, the result with CAPAN-1 and with A-431 was Active. The inhibition result in the data set with Escherichia coli was “inactive”. Further, the IC50 result in [1], in data set [3], in data set [4] and in data set [5] was “Not Active” each time. Also, the Activity entry (in [2]; with HaCaT) was “Toxic” each time.

Regarding `COc1ccc2c(c1)C(=O)C(CN(C)C)C2.Cl` (stereo not given), the outcome with SW707, in the data set with MeWo, with Calu-6, in the data set with BT-474, in the data set with Ca-Ski and in the data set with A 172 was Active. Moreover, the outcome in the data set on CAPAN-1 and with A-431 was Active. Besides, the inhibition at 200 µM with Escherichia coli was determined as 19%. For the same compound, the IC50 is 0.83 µM in [1] (read-out: IC50), 17 µM in [3] (read-out: IC50) and “Not Active” in [4]. The Activity entry (in data set [2]; in the data set with HaCaT) was “Toxic” throughout. Besides, in [6], the half-life at 250 µM came to 0.2 h.

In the case of `CN(C)CC1Cc2c(cccc2C(F)(F)F)C1=O.Cl` (stereo not given), the outcome in the data set on SW707, in the data set on MeWo, in the data set on Calu-6, with BT-474, in the data set with Ca-Ski and in the data set with A 172 was Active. Moreover, the result with CAPAN-1 and in the data set with A-431 was Active. The inhibition at 200 µM in the data set on Escherichia coli was 22%. Also, the IC50 is 7 µM in data set [1] (read-out: IC50), 46 µM in data set [3] (read-out: IC50) and “Not Active” in data set [4]. For the same compound, the Activity result (in data set [2]; in the data set on HaCaT) was “Toxic” throughout. In addition, the half-life at 250 µM in data set [6] is 28.9 h.

With `COc1ccc(C(=O)CCN(C)C)cc1.Cl`, the result in the data set with SW707, in the data set with MeWo, in the data set on Calu-6, with BT-474, in the data set with Ca-Ski and in the data set on A 172 was Active. Further, the result in the data set with CAPAN-1 and in the data set with A-431 was Active. For the same compound, the inhibition result with Escherichia coli is “inactive”. Further, the IC50 result in data set [1], in [3], in [4] and in data set [5] was “Not Active” each time. Further, the Activity entry (in data set [2]; in the data set on HaCaT) was “Toxic” each time.

For the compound `COc1ccc(C(=O)CCN2CCCCC2)cc1.Cl`, the result in the data set on SW707, in the data set with MeWo, in the data set on Calu-6, with BT-474, in the data set with Ca-Ski and with A 172 was Active. For the same compound, the result with CAPAN-1 and in the data set on A-431 was Active. The inhibition result with Escherichia coli is “inactive”. For the same compound, the IC50 entry in data set [1], in [3], in [4] and in data set [5] was “Not Active” throughout. Also, the Activity entry (in data set [2]; with HaCaT) was “Toxic” throughout.
